# Reference: ChEMBL document CHEMBL3779769, “Indole-2-carboxylic acid derived mono and bis 1,4-disubstituted 1,2,3-triazoles: Synthesis, characterization and evaluation of anticancer, antibacterial, and DNA-cleavage activities” (Bioorg Med Chem Lett, 2016)
# Activity calls are given as the source filed them. No cut-off for these calls is given here.
# Tests used:
# Escherichia coli [1] = experiment: Antibacterial activity against Escherichia coli MTCC 443 by broth dilution method; assay type: functional
# Staphylococcus aureus = experiment: Antibacterial activity against Staphylococcus aureus MTCC 96 by broth dilution method; assay type: functional
# Proteus vulgaris = experiment: Antibacterial activity against Proteus vulgaris MTCC 1771 by broth dilution method; assay type: functional
# Bacillus subtilis = experiment: Antibacterial activity against Bacillus subtilis MTCC 441 by broth dilution method; assay type: functional
# MCF7 = experiment: Cytotoxicity against human MCF7 cells assessed as cell viability after 48 hrs by MTT assay; assay type: functional, cell-based; details: MCF7, 48 h
# HeLa = experiment: Cytotoxicity against human HeLa cells assessed as cell viability after 48 hrs by MTT assay; assay type: functional, cell-based
# HEK293 = experiment: Cytotoxicity against HEK293 cells assessed as cell viability after 48 hrs by MTT assay; assay type: cell-based; details: Homo sapiens, HEK293, 48 h
# Escherichia coli [2] = experiment: Induction of DNA cleavage of Escherichia coli pUC18 at 100 ug/ml by agarose gel electrophoresis
# Escherichia coli [3] = experiment: Induction of DNA cleavage of Escherichia coli pUC18 at 50 ug/ml by agarose gel electrophoresis
# [4] = Anticancer activity against mouse EAC cells xenografted in Swiss albino mouse assessed as tumor volume at 10 mg/kg, ip administered for 9 days measured after 14 days (reference value: 12.15 +/- 0.5 ml); assay type: functional, Ehrlich
# [5] = Anticancer activity against mouse EAC cells xenografted in Swiss albino mouse assessed as packed cell volume at 10 mg/kg, ip administered for 9 days measured after 14 days […] (reference value: 2.62 +/- 0.5 ml); assay type: functional, Ehrlich
# [6] = Anticancer activity against mouse EAC cells xenografted in Swiss albino mouse assessed as viable tumor cell count at 10 mg/kg, ip administered for 9 days measured after 14 days by trypan blue incorporation method (reference value: 7.30 +/- 0.6 10^7/ml); assay type: functional, Ehrlich
# Mus musculus [7] = experiment: Effect on hemoglobin level in Swiss albino mouse xenografted with mouse EAC cells at 5 mg/kg, ip administered for 9 days measured on day 14 (reference value: 5.67 +/- 0.8 g%); assay type: functional, Ehrlich
# Mus musculus [8] = experiment: Effect on RBC level in Swiss albino mouse xenografted with mouse EAC cells at 5 mg/kg, ip administered for 9 days measured on day 14 (reference value: 3.01+/- 0.75 10^6/mm3); assay type: functional, Ehrlich
# Mus musculus [9] = experiment: Effect on WBC level in Swiss albino mouse xenografted with mouse EAC cells at 5 mg/kg, ip administered for 9 days measured on day 14 (reference value: 22.07 +/- 0.11 10^3/mm3); assay type: functional, Ehrlich
# Mus musculus [10] = experiment: Effect on SGPT level in Swiss albino mouse xenografted with mouse EAC cells at 5 mg/kg, ip administered for 9 days measured on day 14 (reference value: 55.3 +/- 0.52 IU/L); assay type: functional, Ehrlich
# Mus musculus [11] = experiment: Effect on SGOT level in Swiss albino mouse xenografted with mouse EAC cells at 5 mg/kg, ip administered for 9 days measured on day 14 (reference value: 116.04 +/- 0.14 IU/L); assay type: functional, Ehrlich
# Mus musculus [12] = experiment: Effect on total protein level in Swiss albino mouse xenografted with mouse EAC cells at 5 mg/kg, ip administered for 9 days measured on day 14 (reference value: 7.84 +/- 0.36 […]); assay type: functional, Ehrlich
# Mus musculus [13] = experiment: Effect on hemoglobin level in Swiss albino mouse xenografted with mouse EAC cells at 10 mg/kg, ip administered for 9 days measured on day 14 (reference value: 5.67 +/- 0.8 g%); assay type: functional, Ehrlich
# Mus musculus [14] = experiment: Effect on RBC level in Swiss albino mouse xenografted with mouse EAC cells at 10 mg/kg, ip administered for 9 days measured on day 14 (reference value: 3.01+/- 0.75 10^6/mm3); assay type: functional, Ehrlich
# Mus musculus [15] = experiment: Effect on WBC level in Swiss albino mouse xenografted with mouse EAC cells at 10 mg/kg, ip administered for 9 days measured on day 14 (reference value: 22.07 +/- 0.11 10^3/mm3); assay type: functional, Ehrlich
# Mus musculus [16] = experiment: Effect on SGPT level in Swiss albino mouse xenografted with mouse EAC cells at 10 mg/kg, ip administered for 9 days measured on day 14 (reference value: 55.3 +/- 0.52 IU/L); assay type: functional, Ehrlich
# Mus musculus [17] = experiment: Effect on SGOT level in Swiss albino mouse xenografted with mouse EAC cells at 10 mg/kg, ip administered for 9 days measured on day 14 (reference value: 116.04 +/- 0.14 IU/L); assay type: functional, Ehrlich
# Mus musculus [18] = experiment: Effect on total protein level in Swiss albino mouse xenografted with mouse EAC cells at 10 mg/kg, ip administered for 9 days measured on day 14 (reference value: 7.84 +/- 0.36 […]); assay type: functional, Ehrlich
# Mus musculus [19] = experiment: Effect on body weight in Swiss albino mouse xenografted with mouse EAC cells at 5 mg/kg, ip administered for 9 days (reference value: 13.57 +/- 0.4 g); assay type: functional, Ehrlich
# [20] = Anticancer activity against mouse EAC cells xenografted in Swiss albino mouse assessed as mean survival time at 5 mg/kg, ip administered for 9 days measured for 30 days (reference value: 12.8 +/- 0.7 days); assay type: functional, Ehrlich
# [21] = Anticancer activity against mouse EAC cells xenografted in Swiss albino mouse assessed as percent increase in life span at 5 mg/kg, ip administered for 9 days measured for 30 days; assay type: functional; details: Ehrlich
# Mus musculus [22] = experiment: Effect on body weight in Swiss albino mouse xenografted with mouse EAC cells at 10 mg/kg, ip administered for 9 days (reference value: 13.57 +/- 0.4 g); assay type: functional, Ehrlich
# [23] = Anticancer activity against mouse EAC cells xenografted in Swiss albino mouse assessed as tumor volume at 5 mg/kg, ip administered for 9 days measured after 14 days (reference value: 12.15 +/- 0.5 ml); assay type: functional, Ehrlich
# [24] = Anticancer activity against mouse EAC cells xenografted in Swiss albino mouse assessed as packed cell volume at 5 mg/kg, ip administered for 9 days measured after 14 days […] (reference value: 2.62 +/- 0.5 ml); assay type: functional, Ehrlich
# [25] = Anticancer activity against mouse EAC cells xenografted in Swiss albino mouse assessed as viable tumor cell count at 5 mg/kg, ip administered for 9 days measured after 14 days by trypan blue incorporation method (reference value: 7.30 +/- 0.6 10^7/ml); assay type: functional, Ehrlich
# [26] = Anticancer activity against mouse EAC cells xenografted in Swiss albino mouse assessed as mean survival time at 10 mg/kg, ip administered for 9 days measured for 30 days (reference value: 12.8 +/- 0.7 days); assay type: functional, Ehrlich
# [27] = Anticancer activity against mouse EAC cells xenografted in Swiss albino mouse assessed as percent increase in life span at 10 mg/kg, ip administered for 9 days measured for 30 days; assay type: functional; details: Ehrlich
smiles,measurement,setting,value
COc1ccc(-n2cc(COC(=O)c3cc4ccccc4[nH]3)nn2)cc1,MIC,Escherichia coli [1],> 150 mg/L
same,MIC,Staphylococcus aureus,> 150 mg/L
same,MIC,Proteus vulgaris,4.69 mg/L
same,MIC,Bacillus subtilis,> 150 mg/L
same,IC50,MCF7,16.2 µM
same,IC50,HeLa,16.1 µM
same,IC50,HEK293,42.5 µM
O=C(OCc1cn(-c2ccccc2Br)nn1)c1cc2ccccc2[nH]1,MIC,Escherichia coli [1],> 150 mg/L
same,MIC,Staphylococcus aureus,> 150 mg/L
same,MIC,Proteus vulgaris,> 150 mg/L
same,MIC,Bacillus subtilis,> 150 mg/L
same,IC50,MCF7,38.8 µM
same,IC50,HeLa,17.3 µM
same,IC50,HEK293,> 200 µM
Cc1cc(C)cc(-n2cc(COC(=O)c3cc4ccccc4[nH]3)nn2)c1,MIC,Escherichia coli [1],> 150 mg/L
same,MIC,Staphylococcus aureus,> 150 mg/L
same,MIC,Proteus vulgaris,> 150 mg/L
same,MIC,Bacillus subtilis,> 150 mg/L
same,Activity,Escherichia coli [2],Active
same,IC50,MCF7,30.5 µM
same,IC50,HeLa,30.2 µM
same,IC50,HEK293,12.5 µM
CCCCc1ccc(-n2cc(COC(=O)c3cc4ccccc4[nH]3)nn2)cc1,MIC,Escherichia coli [1],> 150 mg/L
same,MIC,Staphylococcus aureus,> 150 mg/L
same,MIC,Proteus vulgaris,> 150 mg/L
same,MIC,Bacillus subtilis,> 150 mg/L
same,Activity,Escherichia coli [3],Active
same,IC50,MCF7,28.8 µM
same,IC50,HeLa,> 200 µM
same,IC50,HEK293,24.2 µM
Cc1cccc(-n2cc(COC(=O)c3cc4ccccc4[nH]3)nn2)c1C,MIC,Escherichia coli [1],> 150 mg/L
same,MIC,Staphylococcus aureus,4.69 mg/L
same,MIC,Proteus vulgaris,> 150 mg/L
same,MIC,Bacillus subtilis,> 150 mg/L
same,IC50,MCF7,17.1 µM
same,IC50,HeLa,30.3 µM
same,IC50,HEK293,15.3 µM
CCCCc1ccc(-n2cc(COC(=O)c3cc4ccccc4n3Cc3cn(-c4ccc(CCCC)cc4)nn3)nn2)cc1,MIC,Escherichia coli [1],> 150 mg/L
same,MIC,Staphylococcus aureus,> 150 mg/L
same,MIC,Proteus vulgaris,> 150 mg/L
same,MIC,Bacillus subtilis,> 150 mg/L
same,IC50,MCF7,66.9 µM
same,IC50,HeLa,42.8 µM
same,IC50,HEK293,> 200 µM
Cc1cc(C)cc(-n2cc(COC(=O)c3cc4ccccc4n3Cc3cn(-c4cc(C)cc(C)c4)nn3)nn2)c1,MIC,Escherichia coli [1],> 150 mg/L
same,MIC,Staphylococcus aureus,> 150 mg/L
same,MIC,Proteus vulgaris,> 150 mg/L
same,MIC,Bacillus subtilis,> 150 mg/L
same,IC50,MCF7,45.2 µM
same,IC50,HeLa,28.8 µM
same,IC50,HEK293,50.2 µM
Cc1cccc(-n2cc(COC(=O)c3cc4ccccc4n3Cc3cn(-c4cccc(C)c4C)nn3)nn2)c1C,MIC,Escherichia coli [1],> 150 mg/L
same,MIC,Staphylococcus aureus,> 150 mg/L
same,MIC,Proteus vulgaris,> 150 mg/L
same,MIC,Bacillus subtilis,> 150 mg/L
same,IC50,MCF7,> 200 µM
same,IC50,HeLa,> 200 µM
same,IC50,HEK293,14.1 µM
O=C(OCc1cn(-c2cccc(C(F)(F)F)c2)nn1)c1cc2ccccc2n1Cc1cn(-c2cccc(C(F)(F)F)c2)nn1,Activity,[4],5.08 mL
same,Activity,[5],0.86 mL
same,Activity,[6],5.31 ×10⁷ /ml
same,Activity,Mus musculus [7],7.32 g%
same,Activity,Mus musculus [8],3.78 ×10⁶ /mm3
same,Activity,Mus musculus [9],19.32 ×10³ /mm3
same,Activity,Mus musculus [10],53.7 IU/L
same,Activity,Mus musculus [11],109.03 IU/L
same,Activity,Mus musculus [12],7.02 mg/dL
same,Activity,Mus musculus [13],9.3 g%
same,Activity,Mus musculus [14],4.12 ×10⁶ /mm3
same,Activity,Mus musculus [15],16.32 ×10³ /mm3
same,Activity,Mus musculus [16],45.18 IU/L
same,Activity,Mus musculus [17],98.41 IU/L
same,Activity,Mus musculus [18],5.96 mg/dL
same,MIC,Escherichia coli [1],1.17 mg/L
same,MIC,Staphylococcus aureus,> 150 mg/L
same,MIC,Proteus vulgaris,> 150 mg/L
same,MIC,Bacillus subtilis,2.34 mg/L
same,IC50,MCF7,13.3 µM
same,IC50,HeLa,9.89 µM
same,IC50,HEK293,9.08 µM
same,Activity,Mus musculus [19],11.83 g
same,MST,[20],17.23 days
same,ILS at 5 mg/kg,[21],14.2%
same,Activity,Mus musculus [22],9.7 g
same,Activity,[23],9.32 mL
same,Activity,[24],1.63 mL
same,Activity,[25],6.27 ×10⁷ /ml
same,MST,[26],22.56 days
same,ILS at 10 mg/kg,[27],34.1%
CN[C@@H]1[C@H](O[C@H]2[C@H](O[C@H]3[C@H](O)[C@@H](O)[C@H](N=C(N)N)[C@@H](O)[C@@H]3N=C(N)N)O[C@@H](C)[C@]2(O)C=O)O[C@@H](CO)[C@H](O)[C@H]1O [STREPTOMYCIN],MIC,Escherichia coli [1],6.25 mg/L
same,MIC,Staphylococcus aureus,6.25 mg/L
same,MIC,Proteus vulgaris,3.12 mg/L
same,MIC,Bacillus subtilis,6.25 mg/L
COc1ccc(-n2cc(COC(=O)c3cc4ccccc4n3Cc3cn(-c4ccc(OC)cc4)nn3)nn2)cc1,MIC,Escherichia coli [1],> 150 mg/L
same,MIC,Staphylococcus aureus,> 150 mg/L
same,MIC,Proteus vulgaris,9.38 mg/L
same,MIC,Bacillus subtilis,> 150 mg/L
same,IC50,MCF7,100 µM
same,IC50,HeLa,56.1 µM
same,IC50,HEK293,43.9 µM
O=C(OCc1cn(-c2cccc(C(F)(F)F)c2)nn1)c1cc2ccccc2[nH]1,MIC,Escherichia coli [1],2.34 mg/L
same,MIC,Staphylococcus aureus,> 150 mg/L
same,MIC,Proteus vulgaris,> 150 mg/L
same,MIC,Bacillus subtilis,4.69 mg/L
same,Activity,Escherichia coli [2],Active
same,IC50,MCF7,16.5 µM
same,IC50,HeLa,11.7 µM
same,IC50,HEK293,32.7 µM
O=C(OCc1cn(-c2ccccc2Br)nn1)c1cc2ccccc2n1Cc1cn(-c2ccccc2Br)nn1,MIC,Escherichia coli [1],> 150 mg/L
same,MIC,Staphylococcus aureus,2.34 mg/L
same,MIC,Proteus vulgaris,> 150 mg/L
same,MIC,Bacillus subtilis,1.17 mg/L
same,Activity,Escherichia coli [2],Active
same,IC50,MCF7,64.1 µM
same,IC50,HeLa,35.9 µM
same,IC50,HEK293,12.1 µM
